Measured values published in patent US11001590B2, “Pyrazolopyrimidine derivatives” (BAYER ANIMAL HEALTH GMBH, priority 2016, dated 2021).

Assays:
[1] = log P by HPLC on reversed phase columns (Method L0; [a] acidic, [b] neutral range)
Experimental: Calibration was done with straight-chain alkan-2-ones (with 3 to 16 carbon atoms) with known log P values (measurement of log P values using retention times with linear interpolation between successive alkanones). Lambda-max-values were determined using UV-spectra from 200 nm to 400 nm and the peak values of the chromatographic signals.

C. elegans Slo-1a = C. elegans Slo-1a (Caenorhabditis elegans, UniProt Q95V25); test: In vitro assay 1: C. elegans Slo-1a, action at a recombinant C. elegans CHO cell line (membrane potential measurement)
[2] = system: Dirofilaria immitis microfilariae; test: In vitro assay 3: Dirofilaria immitis microfilariae (DIROIM L1), motility; conditions: 72 h, reduction of motility vs negative control, 72 h incubation

C. elegans Slo-1a, sequence (Q95V25 whole entry): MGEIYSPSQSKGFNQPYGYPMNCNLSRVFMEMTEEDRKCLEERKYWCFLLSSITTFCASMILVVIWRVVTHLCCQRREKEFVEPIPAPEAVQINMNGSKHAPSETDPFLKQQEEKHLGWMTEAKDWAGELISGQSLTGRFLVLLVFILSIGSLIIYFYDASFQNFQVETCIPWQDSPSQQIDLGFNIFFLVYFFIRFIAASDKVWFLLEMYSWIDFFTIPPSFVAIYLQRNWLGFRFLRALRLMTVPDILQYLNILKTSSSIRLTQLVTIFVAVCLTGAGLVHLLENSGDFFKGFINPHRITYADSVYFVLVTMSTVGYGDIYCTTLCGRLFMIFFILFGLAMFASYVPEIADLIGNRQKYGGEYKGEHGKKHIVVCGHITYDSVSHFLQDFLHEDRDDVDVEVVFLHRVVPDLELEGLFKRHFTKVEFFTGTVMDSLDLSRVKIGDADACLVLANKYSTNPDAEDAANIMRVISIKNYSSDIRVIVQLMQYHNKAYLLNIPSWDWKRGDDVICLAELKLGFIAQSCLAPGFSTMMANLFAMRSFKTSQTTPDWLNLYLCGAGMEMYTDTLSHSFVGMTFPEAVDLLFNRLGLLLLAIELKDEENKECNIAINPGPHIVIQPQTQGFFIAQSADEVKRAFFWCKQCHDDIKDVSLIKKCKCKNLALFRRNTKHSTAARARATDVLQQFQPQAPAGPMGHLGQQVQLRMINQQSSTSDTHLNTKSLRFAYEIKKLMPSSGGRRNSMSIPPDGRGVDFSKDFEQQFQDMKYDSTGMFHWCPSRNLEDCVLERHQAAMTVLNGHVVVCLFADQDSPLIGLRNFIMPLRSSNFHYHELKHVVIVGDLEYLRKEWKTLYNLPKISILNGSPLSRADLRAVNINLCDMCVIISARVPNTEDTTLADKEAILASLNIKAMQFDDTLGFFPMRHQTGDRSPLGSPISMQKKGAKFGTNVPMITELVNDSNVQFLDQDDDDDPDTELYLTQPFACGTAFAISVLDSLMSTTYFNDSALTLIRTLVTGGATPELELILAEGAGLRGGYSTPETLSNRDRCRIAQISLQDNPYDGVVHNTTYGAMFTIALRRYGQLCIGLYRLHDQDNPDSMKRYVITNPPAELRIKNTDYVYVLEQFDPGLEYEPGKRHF

Row | Structure (SMILES) | chromatographic logP [1] | EC50 (C. elegans Slo-1a) [nM] | EC50 [2] [µg/mL]
1 | CC(C)c1c(C(=O)N[C@H]2CCCc3ccccc32)cnc2c(-c3ccccc3Cl)c(Cl)nn12 [Example 78] | 5.07 | 31.6 | < 0.1
2 | Cc1nn2c(C(C)C)c(C(=O)N[C@H]3CCCc4ccccc43)cnc2c1-c1ccccc1F [Example 94] | 4.72 | 15.8 | < 0.1
3 | Cc1nn2c(C(C)C)c(C(=O)N[C@H]3CCCc4ccccc43)cnc2c1-c1ccc(F)c(F)c1 [Example 102] | 5.14 | 63.1 | < 10
4 | Cc1nn2c(C(C)C)c(C(=O)N[C@H]3CCCc4ccccc43)cnc2c1-c1cc(F)ccc1F [Example 115] | 4.89 | 15.8 | < 0.1
5 | Cc1nn2c(C(C)C)c(C(=O)N[C@H]3CCOc4ccccc43)cnc2c1-c1ccc(Cl)cc1 [Example 118] | 4.88 | 15.8 | < 0.1
6 | Cc1nn2c(C(C)C)c(C(=O)N[C@H]3CCc4ccccc43)cnc2c1-c1cc(Cl)c(Cl)c(Cl)c1 [Example 122] | 6.58 | 12.6 | < 0.1
7 | Cc1nn2c(C(C)C)c(C(=O)N[C@H]3CCCc4ccccc43)cnc2c1-c1cc(Cl)c(Cl)c(Cl)c1 [Example 125] | 6.86 | 25.1 | < 1
8 | CC(C)c1c(C(=O)N[C@H]2CCc3ccccc32)cnc2c(-c3c(F)cc(F)cc3F)c(C(F)(F)F)nn12 [Example 133] | 5.01 | 79.4 | < 1
9 | CC(C)c1c(C(=O)N[C@H]2CCc3ccccc32)cnc2c(-c3c(F)cccc3F)c(C(F)(F)F)nn12 [Example 135] | 4.81 | 126 | < 0.1
10 | CC(C)c1c(C(=O)N[C@H]2CCOc3ccccc32)cnc2c(-c3cccc(OC(F)(F)F)c3)c(C(F)(F)F)nn12 [Example 137] | 5.31 | 25.1 | < 10
11 | CC(C)c1c(C(=O)N[C@H]2CCCc3ccccc32)cnc2c(-c3c(F)cccc3F)c(C(F)(F)F)nn12 [Example 138] | 5.06 | 316 | < 10
12 | CC(C)c1c(C(=O)N[C@H]2CCOc3ccccc32)cnc2c(-c3c(F)cccc3F)c(C(F)(F)F)nn12 [Example 139] | 4.56 | 126 | < 0.1
13 | CC(C)c1c(C(=O)N[C@H]2CCOc3ccccc32)cnc2c(-c3c(F)cc(F)cc3F)c(C(F)(F)F)nn12 [Example 140] | 4.77 | 79.4 | < 0.1
14 | COCc1cccc(-c2c(C(F)(F)F)nn3c(C(C)C)c(C(=O)N[C@H]4CCOc5ccccc54)cnc23)c1 [Example 142] | 4.6 | 79.4 | < 10
15 | CC(C)c1c(C(=O)N[C@H]2CCOc3ccccc32)cnc2c(-c3cc(Cl)cc(C(F)(F)F)c3)c(C(F)(F)F)nn12 [Example 143] | 5.78 | 12.6 | < 10
16 | COCc1cccc(-c2c(C(F)(F)F)nn3c(C(C)C)c(C(=O)N[C@H]4CCc5ccccc54)cnc23)c1 [Example 144] | 4.87 | 158 | < 10
17 | Cc1nn2c(C(C)C)c(C(=O)N[C@H]3CCCc4ccccc43)cnc2c1-c1cccc(C(F)F)c1 [Example 145] | 4.93 | 31.6 | < 10
18 | Cc1nn2c(C(C)C)c(C(=O)N[C@H]3CCCc4ccccc43)cnc2c1-c1cccc2c1OC(F)(F)O2 [Example 146] | 5.47 | 25.1 | < 0.1
19 | Cc1nn2c(C(C)C)c(C(=O)N[C@H]3CCCc4ccccc43)cnc2c1-c1ccc2c(c1)OC(F)(F)O2 [Example 148] | 5.59 | 39.8 | < 10
20 | CC(C)c1c(C(=O)N[C@H]2CCc3ccccc32)cnc2c(-c3cccc(OC(F)(F)F)c3)c(C(F)(F)F)nn12 [Example 149] | 5.55 | 63.1 | < 10
21 | CC(C)c1c(C(=O)N[C@H]2CCc3ccccc32)cnc2c(-c3cc(Cl)cc(C(F)(F)F)c3)c(C(F)(F)F)nn12 [Example 150] | 6.22 | 50.1 | < 10
22 | Cc1nn2c(C(C)C)c(C(=O)N[C@H]3CCc4ccccc43)cnc2c1-c1cccc(C(F)F)c1 [Example 151] | 4.67 | 31.6 | < 1
23 | CC(C)c1c(C(=O)N[C@H]2CCc3ccccc32)cnc2c(-c3cncc(F)c3)c(C(F)(F)F)nn12 [Example 155] | 4.25 | 3160 | < 10
24 | CC(C)c1c(C(=O)N[C@H]2CCc3ccccc32)cnc2c(-c3cncc(Cl)c3)c(C(F)(F)F)nn12 [Example 156] | 4.7 | 631 | < 10
25 | CC(C)c1c(C(=O)N[C@H]2CCc3ccccc32)cnc2c(-c3cccc(F)c3)c(C(F)(F)F)nn12 [Example 157] | 5.02 | 100 | < 10

Row | Structure (SMILES) | chromatographic logP [1] | EC50 (C. elegans Slo-1a) [nM] | EC50 [2] [µg/mL]
26 | CC(C)c1c(C(=O)N[C@H]2CCc3ccccc32)cnc2c(-c3ccccc3F)c(C(F)(F)F)nn12 [Example 158] | 4.76 | 158 | < 10
27 | CC(C)c1c(C(=O)N[C@H]2CCc3ccccc32)cnc2c(-c3cc(F)c(F)c(F)c3)c(C(F)(F)F)nn12 [Example 159] | 5.4 | 1000 | < 10
28 | COc1cc(-c2c(C(F)(F)F)nn3c(C(C)C)c(C(=O)N[C@H]4CCc5ccccc54)cnc23)ccc1F [Example 160] | 4.89 | 100 | < 10
29 | Cc1nn2c(C(C)C)c(C(=O)N[C@H]3CCc4ccccc43)cnc2c1-c1ccccc1 [Example 174] | 4.59 | 15.8 | < 0.1
30 | Cc1nn2c(C(C)C)c(C(=O)N[C@H]3CCCc4ccccc43)cnc2c1-c1ccccc1 [Example 175] | 4.94 | 63.1 | < 10
31 | Cc1nn2c(C(C)C)c(C(=O)N[C@H]3CCOc4ccccc43)cnc2c1-c1ccccc1 [Example 176] | 4.28 | 12.6 | < 0.1
32 | COc1cccc(-c2c(C)nn3c(C(C)C)c(C(=O)N[C@H]4CCc5ccccc54)cnc23)n1 [Example 177, (S)—N-(2,3-Dihydro-1H-inden-1-yl)-7-isopropyl-3-(6-methoxypyridin-2-yl)-2-methylpyrazolo[1,5-a]pyrimidine-6-carboxamide] | 4.89 | 158 | < 10
33 | Cc1nn2c(C(C)C)c(C(=O)N[C@H]3CCc4ccccc43)cnc2c1-c1cccc(F)n1 [Example 178] | 4.6 | 794 | < 10
34 | Cc1nn2c(C(C)C)c(C(=O)N[C@H]3CCc4ccccc43)cnc2c1-c1cccc(C(F)(F)F)n1 [Example 179] | 5.39 | 398 | < 10
35 | Cc1nn2c(C(C)C)c(C(=O)N[C@H]3CCOc4ccccc43)cnc2c1-c1ccc(Cl)cc1Cl [Example 180] | 5.02 | 7.94 | < 0.1
36 | Cc1nn2c(C(C)C)c(C(=O)N[C@H]3CCc4ccccc43)cnc2c1-c1ccc(Cl)cc1Cl [Example 181] | 5.31 | 12.6 | < 0.1
37 | Cc1nn2c(C(C)C)c(C(=O)N[C@H]3CCCc4ccccc43)cnc2c1-c1ccc(Cl)cc1Cl [Example 182] | 5.59 | 12.6 | < 1
38 | Cc1nn2c(C(C)C)c(C(=O)N[C@H]3CCc4ccccc43)cnc2c1-c1cccc(Cl)n1 [Example 183] | 5.1 | 398 | < 10
39 | Cc1nn2c(C(C)C)c(C(=O)N[C@H]3CCOc4ccccc43)cnc2c1-c1cc(F)c(F)c(F)c1 [Example 185] | 4.97 | 12.6 | < 1
40 | Cc1nn2c(C(C)C)c(C(=O)N[C@H]3CCOc4ccccc43)cnc2c1-c1cc(F)c(Cl)c(F)c1 [Example 190] | 5.39 | 25.1 | < 1
41 | Cc1nn2c(C(C)C)c(C(=O)N[C@H]3CCOc4ccccc43)cnc2c1-c1cccc(Cl)n1 [Example 195] | 4.85 | 158 | < 10
42 | CC(C)c1c(C(=O)N[C@H]2CCOc3ccccc32)cnc2c(-c3cc(Cl)cc(Cl)c3)c(C(F)(F)F)nn12 [Example 196] | 5.84 | 50.1 | < 10
43 | CC(C)c1c(C(=O)N[C@H]2CCOc3ccccc32)cnc2c(-c3cc(Cl)c(F)c(Cl)c3)c(C(F)(F)F)nn12 [Example 197] | 5.48 | 501 | < 10
44 | CSc1nn2c(C(C)C)c(C(=O)N[C@H]3CCOc4ccccc43)cnc2c1-c1cc(Cl)cc(Cl)c1 [Example 202] | 6.35 | 25.1 | < 10
45 | CSc1nn2c(C(C)C)c(C(=O)N[C@H]3CCc4ccccc43)cnc2c1-c1cc(Cl)cc(Cl)c1 [Example 203] | 6.67 | 200 | < 10
46 | Cc1nn2c(C(C)C)c(C(=O)N[C@H]3CCOc4ccccc43)cnc2c1-c1cccc(Br)c1 [Example 204] | 5.02 | 15.8 | < 0.1
47 | Cc1nn2c(C(C)C)c(C(=O)N[C@H]3CCc4ccccc43)cnc2c1-c1cccc(Br)c1 [Example 205] | 5.31 | 25.1 | < 0.1
48 | Cc1nn2c(C(C)C)c(C(=O)N[C@H]3CCc4ccccc43)cnc2c1-c1ccc(Br)cc1 [Example 207] | 5.31 | 50.1 | < 10
49 | Cc1nn2c(C(C)C)c(C(=O)NC3COc4ccccc43)cnc2c1-c1c(F)cccc1F (stereo not drawn) [Example 210] | 3.99 | 158 | < 1
